Source: ChEMBL document CHEMBL4330132, “5-Keto-3-cyano-2,4-diaminothiophenes as selective maternal embryonic leucine zipper kinase inhibitors” (Bioorg Med Chem Lett, 2019)

Columns and labels:
[1] = tested on: Tyrosine-protein kinase ABL1 (Homo sapiens), P00519 [F317I]; assay: Binding affinity to human phosphorylated ABL1 F317I mutant (S229 to K512 residues) expressed in mammalian expression system assessed as residual binding level at 1 uM by Kinomescan method relative to control
[2] = tested on: Tyrosine-protein kinase ABL1 (Homo sapiens), P00519 [Q252H]; assay: Binding affinity to human non-phosphorylated ABL1 Q252H mutant (S229 to K512 residues) expressed in mammalian expression system assessed as residual binding level at 1 uM by Kinomescan method relative to control
[3] = tested on: Tyrosine-protein kinase ABL1 (Homo sapiens), P00519 [Y253F]; assay: Binding affinity to human phosphorylated ABL1 Y253F mutant (S229 to K512 residues) expressed in mammalian expression system assessed as residual binding level at 1 uM by Kinomescan method relative to control
[4] = molecular target: Activin receptor type-2A (Homo sapiens) (UniProt P27037); assay: Binding affinity to wild-type human ACVR2A (V171 to T499 residues) expressed in bacterial expression system assessed as residual binding level at 1 uM by Kinomescan method relative to control
[5] = molecular target: RAC-gamma serine/threonine-protein kinase (Homo sapiens) (UniProt Q9Y243); assay: Binding affinity to wild-type human partial length AKT3 expressed in bacterial expression system assessed as residual binding level at 1 uM by Kinomescan method relative to control
[6] = molecular target: Cyclin-dependent kinase-like 2 (Homo sapiens) (UniProt Q92772); assay: Binding affinity to wild-type human partial length CDKL2 (M1 to D327 residues) expressed in bacterial expression system assessed as residual binding level at 1 uM by Kinomescan method relative to control
[7] = molecular target: Cyclin-dependent kinase-like 3 (Homo sapiens) (UniProt Q8IVW4); assay: Binding affinity to wild-type human partial length CDKL3 (M1 to D327 residues) expressed in bacterial expression system assessed as residual binding level at 1 uM by Kinomescan method relative to control
[8] = molecular target: Dual specificity protein kinase CLK4 (Homo sapiens) (UniProt Q9HAZ1); assay: Binding affinity to wild-type human partial length CLK4 (R135 to K481 residues) expressed in bacterial expression system assessed as residual binding level at 1 uM by Kinomescan method relative to control
[9] = molecular target: Macrophage colony-stimulating factor 1 receptor (Homo sapiens) (UniProt P07333); assay: Binding affinity to wild-type human partial length CSF1R (I564 to S939 residues) expressed in bacterial expression system assessed as residual binding level at 1 uM by Kinomescan method relative to control
[10] = molecular target: Serine/threonine-protein kinase DCLK3 (Homo sapiens) (UniProt Q9C098); assay: Binding affinity to wild-type human partial length DCAMKL3 (E140 to V628 residues) expressed in bacterial expression system assessed as residual binding level at 1 uM by Kinomescan method relative to control
[11] = tested on: Epidermal growth factor receptor (Homo sapiens), P00533 [UNDEFINED MUTATION]; assay: Binding affinity to human partial length EGFR E746-A750del mutant expressed in bacterial expression system assessed as residual binding level at 1 uM by Kinomescan method relative to control
[12] = tested on: Epidermal growth factor receptor (Homo sapiens), P00533 [L861Q]; assay: Binding affinity to human partial length EGFR L861Q mutant (R669 to V1011 residues) expressed in bacterial expression system assessed as residual binding level at 1 uM by Kinomescan method relative to control
[13] = molecular target: Receptor tyrosine-protein kinase erbB-2 (Homo sapiens) (UniProt P04626); assay: Binding affinity to wild-type human partial length ERBB2 (K646 to V1225 residues) expressed in mammalian expression system assessed as residual binding level at 1 uM by Kinomescan method relative to control
[14] = molecular target: Fibroblast growth factor receptor 4 (Homo sapiens) (UniProt P22455); assay: Binding affinity to wild-type human partial length FGFR4 (G402 to E713 residues) expressed in bacterial expression system assessed as residual binding level at 1 uM by Kinomescan method relative to control
[15] = molecular target: Tyrosine-protein kinase Fgr (Homo sapiens) (UniProt P09769); assay: Binding affinity to wild-type human partial length FGR (L233 to T529 residues) expressed in bacterial expression system assessed as residual binding level at 1 uM by Kinomescan method relative to control
[16] = molecular target: Mitogen-activated protein kinase kinase kinase 2 (Homo sapiens) (UniProt Q9Y2U5); assay: Binding affinity to wild-type human partial length MAP3K2 (S315 to H619 residues) expressed in mammalian expression system assessed as residual binding level at 1 uM by Kinomescan method relative to control
[17] = molecular target: Dual specificity mitogen-activated protein kinase kinase 5 (Homo sapiens) (UniProt Q13163); assay: Binding affinity to wild-type human partial length MEK5 (L98 to P448 residues) expressed in mammalian expression system assessed as residual binding level at 1 uM by Kinomescan method relative to control
[18] = tested on: Hepatocyte growth factor receptor (Homo sapiens), P08581 [Y1235D]; assay: Binding affinity to human partial length MET Y1235D mutant (D1010 to S1367 residues) expressed in bacterial expression system assessed as residual binding level at 1 uM by Kinomescan method relative to control
[19] = molecular target: MAP kinase-interacting serine/threonine-protein kinase 1 (Homo sapiens) (UniProt Q9BUB5); assay: Binding affinity to wild-type human full length MKNK1 (M1 to L424 residues) expressed in mammalian expression system assessed as residual binding level at 1 uM by Kinomescan method relative to control
[20] = molecular target: Cyclin-dependent kinase 17 (Homo sapiens) (UniProt Q00537); assay: Binding affinity to wild-type human full length PCTK2 (M1 to F523 residues) expressed in bacterial expression system assessed as residual binding level at 1 uM by Kinomescan method relative to control
[21] = molecular target: Ribosomal protein S6 kinase alpha-5 (Homo sapiens) (UniProt O75582); assay: Binding affinity to wild-type human partial length N-terminal RPS6KA5 kinase domain 1 expressed in bacterial expression system assessed as residual binding level at 1 uM by Kinomescan method relative to control
[22] = molecular target: Tyrosine-protein kinase SYK (Homo sapiens) (UniProt P43405); assay: Binding affinity to wild-type human partial length SYK (D354 to N635 residues) expressed in bacterial expression system assessed as residual binding level at 1 uM by Kinomescan method relative to control
[23] = molecular target: Tyrosine-protein kinase Tec (Homo sapiens) (UniProt P42680); assay: Binding affinity to wild-type human partial length TEC (L341 to D620 residues) expressed in bacterial expression system assessed as residual binding level at 1 uM by Kinomescan method relative to control
[24] = molecular target: Tyrosine-protein kinase Yes (Homo sapiens) (UniProt P07947); assay: Binding affinity to wild-type human partial length YES (T257 to L543 residues) expressed in bacterial expression system assessed as residual binding level at 1 uM by Kinomescan method relative to control
[25] = molecular target: Mitogen-activated protein kinase kinase kinase 19 (Homo sapiens) (UniProt Q56UN5); assay: Binding affinity to wild-type human partial length YSK4 (T1019 to H1328 residues) expressed in mammalian expression system assessed as residual binding level at 1 uM by Kinomescan method relative to control
Sequence of Mitogen-activated protein kinase kinase kinase 19 (Homo sapiens) (Q56UN5 whole entry, the tested form may be a part): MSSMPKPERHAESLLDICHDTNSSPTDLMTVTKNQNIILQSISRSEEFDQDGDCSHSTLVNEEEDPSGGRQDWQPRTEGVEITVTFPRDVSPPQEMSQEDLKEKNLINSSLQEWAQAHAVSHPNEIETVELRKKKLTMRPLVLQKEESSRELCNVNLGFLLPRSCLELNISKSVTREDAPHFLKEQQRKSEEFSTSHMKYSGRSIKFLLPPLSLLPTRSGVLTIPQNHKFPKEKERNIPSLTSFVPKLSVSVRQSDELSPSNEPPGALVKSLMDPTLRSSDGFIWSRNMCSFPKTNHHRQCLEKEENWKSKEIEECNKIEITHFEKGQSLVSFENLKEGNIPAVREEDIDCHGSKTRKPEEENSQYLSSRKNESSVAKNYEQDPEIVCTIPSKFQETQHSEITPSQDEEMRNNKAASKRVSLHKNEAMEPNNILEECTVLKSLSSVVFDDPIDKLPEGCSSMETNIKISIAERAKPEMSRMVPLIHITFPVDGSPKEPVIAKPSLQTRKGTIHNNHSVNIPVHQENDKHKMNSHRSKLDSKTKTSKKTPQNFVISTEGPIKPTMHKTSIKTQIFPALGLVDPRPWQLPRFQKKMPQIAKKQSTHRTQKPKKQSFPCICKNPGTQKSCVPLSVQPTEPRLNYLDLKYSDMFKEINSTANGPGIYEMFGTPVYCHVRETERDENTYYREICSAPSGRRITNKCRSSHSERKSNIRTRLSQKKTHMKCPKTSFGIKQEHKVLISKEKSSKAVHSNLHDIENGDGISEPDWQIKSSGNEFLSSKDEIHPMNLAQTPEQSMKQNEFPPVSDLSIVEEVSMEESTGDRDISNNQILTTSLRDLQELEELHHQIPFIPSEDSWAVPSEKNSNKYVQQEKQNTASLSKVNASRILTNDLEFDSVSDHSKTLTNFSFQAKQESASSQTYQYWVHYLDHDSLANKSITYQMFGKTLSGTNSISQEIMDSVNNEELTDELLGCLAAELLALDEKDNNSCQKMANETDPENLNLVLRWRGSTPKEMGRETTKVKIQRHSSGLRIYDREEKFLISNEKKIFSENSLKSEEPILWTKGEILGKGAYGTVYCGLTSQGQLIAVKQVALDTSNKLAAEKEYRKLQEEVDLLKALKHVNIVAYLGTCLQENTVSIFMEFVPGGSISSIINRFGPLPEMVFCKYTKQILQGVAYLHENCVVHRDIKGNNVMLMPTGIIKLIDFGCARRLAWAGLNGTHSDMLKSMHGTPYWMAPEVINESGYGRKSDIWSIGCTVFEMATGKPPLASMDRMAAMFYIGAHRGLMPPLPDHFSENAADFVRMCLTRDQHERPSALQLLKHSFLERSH

Sequence of Receptor tyrosine-protein kinase erbB-2 (Homo sapiens) (P04626 whole entry, the tested form may be a part): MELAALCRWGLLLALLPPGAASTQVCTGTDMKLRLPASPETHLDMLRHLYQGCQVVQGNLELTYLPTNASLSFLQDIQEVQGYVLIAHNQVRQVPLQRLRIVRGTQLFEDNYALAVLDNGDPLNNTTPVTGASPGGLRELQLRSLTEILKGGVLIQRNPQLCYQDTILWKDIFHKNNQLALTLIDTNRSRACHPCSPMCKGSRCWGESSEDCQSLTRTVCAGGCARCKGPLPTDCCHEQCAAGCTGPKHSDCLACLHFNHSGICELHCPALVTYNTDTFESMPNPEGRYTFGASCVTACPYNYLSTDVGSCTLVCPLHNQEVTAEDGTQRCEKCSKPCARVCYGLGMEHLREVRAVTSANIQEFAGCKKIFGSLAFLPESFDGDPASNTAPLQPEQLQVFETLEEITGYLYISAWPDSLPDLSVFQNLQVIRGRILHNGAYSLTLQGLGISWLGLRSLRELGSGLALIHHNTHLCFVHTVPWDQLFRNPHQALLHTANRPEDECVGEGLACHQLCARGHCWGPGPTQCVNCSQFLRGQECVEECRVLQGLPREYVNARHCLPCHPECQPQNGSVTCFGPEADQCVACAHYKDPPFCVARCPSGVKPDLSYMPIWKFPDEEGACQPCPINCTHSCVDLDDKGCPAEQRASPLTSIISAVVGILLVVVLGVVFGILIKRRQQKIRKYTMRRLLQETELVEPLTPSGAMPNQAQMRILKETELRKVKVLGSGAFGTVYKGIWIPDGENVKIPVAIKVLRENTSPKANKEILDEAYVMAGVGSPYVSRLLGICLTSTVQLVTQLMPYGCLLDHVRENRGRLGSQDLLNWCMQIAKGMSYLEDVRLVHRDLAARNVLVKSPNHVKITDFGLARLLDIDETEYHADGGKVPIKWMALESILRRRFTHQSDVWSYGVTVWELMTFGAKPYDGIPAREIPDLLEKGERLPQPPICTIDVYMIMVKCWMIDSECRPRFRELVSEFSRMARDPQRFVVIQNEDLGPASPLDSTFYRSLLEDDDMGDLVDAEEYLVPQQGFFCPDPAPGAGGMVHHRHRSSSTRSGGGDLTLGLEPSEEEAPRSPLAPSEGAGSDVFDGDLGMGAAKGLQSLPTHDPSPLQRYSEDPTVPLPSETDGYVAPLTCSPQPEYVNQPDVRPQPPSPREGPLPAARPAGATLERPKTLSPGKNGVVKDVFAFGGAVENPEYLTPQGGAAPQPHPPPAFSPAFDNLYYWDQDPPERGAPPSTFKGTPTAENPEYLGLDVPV
Sequence of Serine/threonine-protein kinase DCLK3 (Homo sapiens) (Q9C098 whole entry, the tested form may be a part): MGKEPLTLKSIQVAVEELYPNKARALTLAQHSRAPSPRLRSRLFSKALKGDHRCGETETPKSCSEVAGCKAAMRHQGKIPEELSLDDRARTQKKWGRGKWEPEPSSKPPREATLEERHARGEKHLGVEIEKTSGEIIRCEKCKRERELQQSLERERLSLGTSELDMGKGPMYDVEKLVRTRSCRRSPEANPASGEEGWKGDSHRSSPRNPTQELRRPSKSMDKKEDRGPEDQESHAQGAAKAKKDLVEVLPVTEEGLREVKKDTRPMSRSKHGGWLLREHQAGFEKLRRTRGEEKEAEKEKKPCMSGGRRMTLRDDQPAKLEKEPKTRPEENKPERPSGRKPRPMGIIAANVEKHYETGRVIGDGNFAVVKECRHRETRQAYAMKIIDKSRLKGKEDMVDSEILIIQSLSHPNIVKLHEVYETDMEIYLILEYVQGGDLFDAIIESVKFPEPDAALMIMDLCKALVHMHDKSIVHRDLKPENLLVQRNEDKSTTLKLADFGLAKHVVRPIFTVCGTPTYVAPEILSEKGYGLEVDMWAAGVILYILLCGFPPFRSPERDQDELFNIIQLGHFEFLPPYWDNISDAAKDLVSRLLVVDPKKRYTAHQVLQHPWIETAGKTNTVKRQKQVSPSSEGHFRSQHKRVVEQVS
Sequence of Tyrosine-protein kinase Tec (Homo sapiens) (P42680 whole entry, the tested form may be a part): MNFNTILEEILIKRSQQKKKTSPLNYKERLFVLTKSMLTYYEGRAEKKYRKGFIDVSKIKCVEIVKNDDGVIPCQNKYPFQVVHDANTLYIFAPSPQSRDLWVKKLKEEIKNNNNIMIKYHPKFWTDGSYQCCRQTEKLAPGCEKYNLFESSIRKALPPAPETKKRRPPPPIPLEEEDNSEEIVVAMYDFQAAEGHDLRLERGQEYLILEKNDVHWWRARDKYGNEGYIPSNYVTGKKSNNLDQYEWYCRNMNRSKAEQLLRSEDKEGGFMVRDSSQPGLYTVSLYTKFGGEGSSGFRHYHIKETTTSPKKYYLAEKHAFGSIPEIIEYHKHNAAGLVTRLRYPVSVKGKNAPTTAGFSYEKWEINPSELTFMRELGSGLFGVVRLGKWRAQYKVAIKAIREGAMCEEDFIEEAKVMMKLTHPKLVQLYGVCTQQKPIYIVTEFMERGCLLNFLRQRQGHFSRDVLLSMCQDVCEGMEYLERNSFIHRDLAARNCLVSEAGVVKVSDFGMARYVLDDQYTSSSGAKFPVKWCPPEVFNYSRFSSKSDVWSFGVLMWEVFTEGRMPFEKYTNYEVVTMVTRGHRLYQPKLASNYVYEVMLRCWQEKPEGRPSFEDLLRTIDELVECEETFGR
Sequence of Dual specificity mitogen-activated protein kinase kinase 5 (Homo sapiens) (Q13163 whole entry, the tested form may be a part): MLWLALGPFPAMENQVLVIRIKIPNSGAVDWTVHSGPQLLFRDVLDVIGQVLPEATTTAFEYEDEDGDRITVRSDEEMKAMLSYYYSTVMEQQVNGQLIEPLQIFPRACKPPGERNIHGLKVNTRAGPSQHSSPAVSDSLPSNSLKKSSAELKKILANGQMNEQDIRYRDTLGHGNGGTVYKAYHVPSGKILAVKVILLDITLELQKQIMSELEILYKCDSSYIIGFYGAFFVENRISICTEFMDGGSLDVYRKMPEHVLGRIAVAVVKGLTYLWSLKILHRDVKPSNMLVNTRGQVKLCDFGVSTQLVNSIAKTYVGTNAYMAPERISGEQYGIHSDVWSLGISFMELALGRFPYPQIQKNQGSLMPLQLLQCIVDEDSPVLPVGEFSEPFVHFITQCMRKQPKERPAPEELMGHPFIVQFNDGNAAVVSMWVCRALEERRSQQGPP
Sequence of Cyclin-dependent kinase-like 2 (Homo sapiens) (Q92772 whole entry, the tested form may be a part): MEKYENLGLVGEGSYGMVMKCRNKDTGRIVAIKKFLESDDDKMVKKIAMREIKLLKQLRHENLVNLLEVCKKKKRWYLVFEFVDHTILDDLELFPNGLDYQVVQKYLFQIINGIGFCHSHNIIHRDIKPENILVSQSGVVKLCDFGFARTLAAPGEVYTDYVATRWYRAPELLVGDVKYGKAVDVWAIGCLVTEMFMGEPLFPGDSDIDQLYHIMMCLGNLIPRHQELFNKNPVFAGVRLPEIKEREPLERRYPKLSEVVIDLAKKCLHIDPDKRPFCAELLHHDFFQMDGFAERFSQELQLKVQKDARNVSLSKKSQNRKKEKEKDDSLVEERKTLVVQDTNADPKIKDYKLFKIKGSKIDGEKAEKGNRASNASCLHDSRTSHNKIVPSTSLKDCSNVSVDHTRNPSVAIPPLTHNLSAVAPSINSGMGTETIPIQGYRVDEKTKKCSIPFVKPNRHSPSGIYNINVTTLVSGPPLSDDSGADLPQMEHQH

In the case of `CC(C)Nc1sc(C(=O)c2ccc(Cl)s2)c(N)c1C#N`, the Activity [1] is reported as 100%, the Activity [2] is reported as 100% and the Activity [3] is reported as 100%. For the same molecule, the Activity [4] was 62%, the Activity [5] was 100% and the Activity [6] was 80%. It also gave an Activity [7] of 47%, an Activity [8] of 88% and an Activity [9] of 97%. The Activity [10] was 100%, the Activity [11] was 93% and the Activity [12] was 96%. It also gave an Activity [13] of 76%, an Activity [14] of 74% and an Activity [15] of 97%. For the same molecule, the Activity [16] was 98%, the Activity [17] was 100% and the Activity [18] was 73%. It also gave an Activity [19] of 100%, an Activity [20] of 87% and an Activity [21] of 92%. It also gave an Activity [22] of 91%, an Activity [23] of 94% and an Activity [24] of 56%. The Activity [25] was 100%.
